Common to all, as to format: in vivo
The test system of experiment [1] is Western corn rootworm larvae. In words: Western corn rootworm survival assay (treated corn seeds). As to conditions: corn seeds coated 1% weight/weight; 6 neonatal larvae per cup; 7 days at 28° C.; α=0.05; control survival 67.8±3.7%. As for the experimental part: Solo® condiment cups with lids. Germination of seeds was performed by carefully applying 500 μL of de-ionized water in order to fully surround each seed with water at the bottom of the cup. Parafilm® wax was placed over the top of the cup to maintain moisture and encourage germination of the seeds. Cups containing moistened seeds were allowed to germinate in the dark for 3 days before the start of the assay. Six live neonatal Western corn rootworm larvae were carefully applied to the roots of germinated corn seeds for each cup. After applying the larvae to the roots, 30 g of dried soil, sieved with a 600-μm Fisher Brand sieve and moistened with 4.5 mL of water, was applied evenly throughout the cup. Organza was placed over the top of the cup and fastened in place with a cup lid. Cups were incubated at 28° C. in 40-50% humidity for 7 days. Surviving corn rootworm were enumerated and the average percentage survival was reported. A minimum of 10 replicates were performed for each treatment.

Experiment [2] relates to Western corn rootworm larvae. In words: Western corn rootworm repellency assay (treated vs untreated corn sides). To be noted: one week; for larval mortality (missing larvae declared dead) in repellency arena: one side treated seeds, control 20% declared dead; for repellency: larvae isolated from untreated end vs treated end: choice between treated and untreated corn, 30 larvae, control 52% treated side / 48% untreated side. The text has this:
Three treated seeds were germinated on one side of a plastic Genpack deli container (32 oz.) 5 days prior to infesting the container with western corn rootworm larvae. On the other side, three untreated seeds were germinated at the same time diagonally across from the treated seeds. Containers were infested by placing 30 rootworm into the middle of the container, on the top of the soil. Rootworm were allowed to choose which side to feed on primarily. Containers infested with western corn rootworm were incubated at 28° C. and 40±10% relative humidity for one week. After one week, containers were removed and soil was mechanically sifted through to quantify the number of living larvae. The total number of larvae present on the treated side vs. the untreated side were averaged from a minimum of three replicates. If repellency was observed (i.e. more rootworm found on the untreated side than the treated side), the experiment was repeated to confirm repellency in subsequent experiments. The number of rootworm missing were also enumerated. Data was averaged from a minimum of three replicates and over 90 larvae used in the total repellency assessment for each compound.

Experiment [3] has as its system corn seeds. In words: Germination assays of coated corn seeds. As to conditions: 3 days dark then one week in soil, root mats and radicals emerged or not.
Experimental: Germination of seeds was performed by carefully applying 500 μL of de-ionized water in order to fully surround each seed with water at the bottom of the cup. Parafilm wax was placed over the top of the cup to maintain moisture and encourage germination of the seeds. Cups containing moistened seeds were allowed to germinate in the dark for 3 days before 30 g of soil was introduced into the cup, with 4.5 mL of water added to the soil to moisten it. Seeds were allowed to grow for one week before removing the soil and assessing total germination. Germination was quantified as whether or not root mats and radicals emerged from the moistened seed casing. The total number of seeds in each cup (out of three seeds) that germinated were quantified. Over 4 replicates of this experiment were performed for each monoterpenoid derivative treatment screened.

Here are results for ten compounds from patent publication US11696581B2, “Monoterpenoid/phenylpropanoid-containing compounds and methods of their making and use as seed treatments” (KITTRICH CORPORATION, priority 2016, dated 2023).

As to `CC(C)=CCCC(C)CCOC(=O)CC(C)CCC=C(C)C` (stereo not shown) [citronellyl citronellate], the “larval survival compared to the control” value in experiment [1] is given as “significantly lower larval survival than the control”.
Regarding `CCCCCCCCCCCCCC(=O)OCC=Cc1ccccc1` [cinnamyl myristate], the “larval survival compared to the control” value in experiment [1] is given as “significantly lower larval survival than the control”. Besides, the “larval mortality (missing larvae declared dead) in repellency arena” value (“larval mortality” for short) in experiment [2] is given as “higher larval mortality that was statistically significant compared to the control”.
With eugenyl succinate, the “larval survival compared to the control” value in experiment [1] is “significantly lower larval survival than the control”. For the same compound, in experiment [2], the “repellency: larvae isolated from untreated end vs treated end” value (shortened to “repellency … vs treated end”) is on record as “higher number of larvae to be isolated from the untreated end compared to the treated end” and the “larval mortality” value is reported as “higher larval mortality that was statistically significant compared to the control”.
For the compound `CC(C)=CCCC(C)CC(=O)OC1C(OC(=O)CC(C)CCC=C(C)C)C(OC(=O)CC(C)CCC=C(C)C)C(OC(=O)CC(C)CCC=C(C)C)C(OC(=O)CC(C)CCC=C(C)C)C1OC(=O)CC(C)CCC=C(C)C` (stereo not shown) [inositol hexacitronellate, hexacitronelloylinositol], the “larval survival compared to the control” value in experiment [1] is reported as “significantly lower larval survival than the control”. Moreover, in experiment [2] (average, choice arena, control approximately 52%), the “larvae associated with the treated corn side” value was 22%. In addition, the “repellency … vs treated end” value in experiment [2] was “higher number of larvae to be isolated from the untreated end compared to the treated end”. Further, in experiment [3], the “inhibition of germination of corn seedlings” value (from here on “inhibition”) is on record as “most significant inhibitors of germination of corn seedlings”.
On to `CC(C)=CCCC(C)CC(=O)OCCOC(=O)CC(C)CCC=C(C)C` (stereo not shown) [ethylene dicitronellate, Ethylene dicitronellate], for which the “larval survival compared to the control” value in experiment [1] is “significantly lower larval survival than the control”. Further, in experiment [2], the “larval mortality” value is “higher larval mortality that was statistically significant compared to the control”.
Consider `O=C(O)CCC(=O)OC/C=C/c1ccccc1` [cinnamyl hydrogen succinate], for which the “larval survival compared to the control” value in experiment [1] is “significantly lower larval survival than the control”. Moreover, the “inhibition” value in experiment [3] is recorded as “most significant inhibitors of germination of corn seedlings”.
Regarding `O=C(/C=C/c1ccccc1)OC1C(OC(=O)/C=C/c2ccccc2)C(OC(=O)/C=C/c2ccccc2)C(OC(=O)/C=C/c2ccccc2)C(OC(=O)/C=C/c2ccccc2)C1OC(=O)/C=C/c1ccccc1` (stereo not shown) [hexacinnamoyl inositol, hexacinnamoylinositol], the “repellency … vs treated end” value in experiment [2] is listed as “higher number of larvae to be isolated from the untreated end compared to the treated end”.
For `Cc1ccc(C(C)C)c(OC(=O)/C=C/c2ccccc2)c1` [thymyl cinnamate], in experiment [1], the “larval survival compared to the control” value is on record as “significantly lower larval survival than the control”. The “repellency … vs treated end” value in experiment [2] was “higher number of larvae to be isolated from the untreated end compared to the treated end”.
As for `C=CCc1ccc(OC(=O)CC(C)CCC=C(C)C)c(OC)c1` (stereo not shown) [eugenyl citronellate], the “inhibition” value in experiment [3] is “most significant inhibitors of germination of corn seedlings”.
As for `Cc1ccc(C(C)C)c(OC(=O)CCC(=O)O)c1` [thymyl hydrogen succinate], the “larval survival compared to the control” value in experiment [1] is “significantly lower larval survival than the control”.
